Experimental data from patent publication US20080269313A1, “Prolyl Oligopeptidase Inhibitors Ameliorating Recovery From Brain Trauma” (ORION CORPORATION, priority 2003, published 2008).

Columns and labels:
[1] = system: male rats with the focal forebrain ischemia; experiment: limb-placing test after focal forebrain ischemia (middle cerebral artery occlusion 90 min); type: in vivo, rat; conditions: for difference in limb-placing test between JTP-4819 and control groups: ischemic rats vs vehicle control
Description: The effects of JTP-4819 on the recovery in the use of limbs assessed by the limb placing task in male rats with the focal forebrain ischemia.
The experiment was carried out on male Spraque-Dawley rats (about 200 g), bred in B&K, Sweden. The rats were allowed to acclimatized for one week before the start of teaching of behavioural testing and subsequent operation (Table 1). During acclimatization period, the rats were housed in solid bottom Macrolon type III cages with stainless steel mesh lids (at maximum five rats in each cage). The rats had free access to standard certified pelleted food (RM1 Maintenance Expanded SQC; Special Diet Services, Essex, UK) and water. After operation, the rats were housed singly in a Macrolon cage. Some food pellets were put into a cage in order to enable to their feeding. On the second post-operative day and thereafter, the rats were housed (maximum 10 rats in one cage) in the enriched environment (Enriched rat cage system, 03-RS-R, Scanbur A/S, Lellinge, Denmark) where the floor area of one cage was 4250 cm^2. […] Tap water and pelleted food were freely available.
Anesthesia was initiated with 4-5% halothane (30% oxygen, 65% nitrous oxide) and maintained throughout the operation with 0.5-1.5% halothane delivered via a nose cone. Body temperature was maintained at 37.0±0.5° C. using a thermoregulatory heating unit with homeothermic blanket (HB 101/2 RS, Letica Scientific Instruments). Heparin (40 IU, i.v.) was given just before the operation to prevent possible complications caused by blood coagulation. The right common carotid artery was exposed through a midline ventral cervical incision, and carefully separated from the adjacent sympathetic nerves under a stereomicroscope. The common carotid artery and internal carotid artery were then clamped with microvascular clips. The external carotid artery was ligated distally with a nylon suture and the artery was cut for induction of suture. A heparinized nylon suture (Ø0.28 mm, rounded tip) was introduced into the stump of the external carotid artery, the internal carotid artery clip was removed, and the suture was advanced into the internal carotid artery until it passed beyond the origin of the middle cerebral artery. After occlusion for 90 min, the suture was removed to allow reperfusion in the middle cerebral artery territory. The stump of the external carotid artery was electrocoagulated and the common carotid artery clip was removed. The cervical incision was closed with silk sutures after the application of 2% lidocain gel (Xylocaln® 2%, Astra Finland). In sham-operated rats, the right common carotid artery was exposed and the external carotid artery was electrocoagulated without introducing the filament into the internal carotid artery. Animals were given 0.9% NaCl (i.p.) during the first-post-operative days (days 0 and 1). They were housed singly in a Macrolon cage.
JTP-4819 was dissolved in sterile saline. The drug was injected 1 ml/kg intraperitoneally (i.p.). […] On the testing day 2, the drug was injected after the rats were tested in a limb placing test and assigned to groups. On days 3-14, the rats were treated even if they were not tested in a limb placing test Table 1). In those days (6, 8, 10, 12, 13), the rats were injected in the afternoon, about 24 hours after the preceding injection. […]
On the second day after operation, behavioral deficits of rats were assessed by using a limb-placing test (De Ryck et al., 1989). […]

[2] = system: experimental models of senile dementia; conditions: Toide et al. 1997; cited from earlier work

## O=C(CO)[C@@H]1CCCN1C(=O)[C@@H]1CCCN1C(=O)NCc1ccccc1 [JTP-4819]
[1]; 1 μmol/kg i.p. daily, from day 5 to day 17 after ischemia
  difference in limb-placing test between JTP-4819 and control groups: significant difference (p<0.05)
[1]; 9 μmol/kg i.p. daily, on day 3 and 9
  difference in limb-placing test between JTP-4819 and control groups: significant difference (p<0.05)
[1]; 0.9 or 9.0 μmol/kg intraperitoneally, especially the lower dose, day 5-17
  recovery in limb-placing score as compared to vehicle treated rats (FIG. 1): augmented recovery
[1]; daily systemic administration started after unilateral focal forebrain ischemia, rats
  recovery in the use of limbs: enhanced the recovery in the use of limbs
[1]; lower dose of JTP-4819 (1 μmol/kg i.p.), after treatment days 2-14
  limb-placing test effect after the discontinuation of drug administration: amelioration effect also was seen
[2]
  cognition effects: cognition improving effects
